Laboratory results taken from US12673973B2, “Peptide having blood coagulation activity, and use thereof” (CAREGEN CO, LTD., priority 2021, dated 2026).
Peptide text beside a SMILES is read from it.

Assays:
[1] = tested on: red blood cells; assay: Hemolysis test; type: cell-based, rat; settings: 1 hour 37° C.
Method: Furthermore, it was confirmed whether hemolysis, in which blood cells are destroyed, occurs by treatment with the peptide of the present invention. In a state where the coagulation reaction of the collected rat blood was suppressed in a heparinized vacuum collection tube, it was transferred to an EP tube and centrifuged at 1,500 g for 10 minutes. After removing the supernatant plasma, the precipitated red blood cells were treated with 200 μl of 2.5% and 5% of the peptide of the present invention, respectively. A sample treated with 1% SDS was used as a positive control for hemolysis. Each sample was stored for 1 hour in a 37° C. incubator, and then centrifuged again at 1,500 g for 10 minutes. 200 μl of the supernatant was transferred to a 96-well plate, and the optical density was measured at a wavelength of 540 nm.

[2] = tested on: rat blood; assay: Blood coagulation test: clotting time by tube inversion; type: cell-based; settings: 300 μl heparinized rat blood + 150 μl sample, peptides at 2.5%
Method: First, the clotting time of blood according to the treatment of the peptide of the present invention was evaluated. In a state where the coagulation reaction of the collected rat blood was suppressed in a heparinized vacuum collection tube, 300 μl of blood was transferred to an EP tube, and 150 μl of a solution in which the peptide of the present invention was dissolved in purified water was treated thereto. The clotting time was measured by inverting the tube at 10-second intervals and visually evaluating the flowability of the blood. As a control group, the RADA16 peptide sample and Greenplast (Greenplast Q, GC Green Cross) were used to conduct the experiment in the same manner as the peptide of the present invention.

[3] = tested on: rat blood; assay: Blood coagulation test: optical density of supernatant; type: cell-based; settings: heparinized rat blood, CaCl2 added, 37° C. 10 minutes
Method: In addition, in order to evaluate the coagulation efficacy of the peptide of the present invention, the peptide of the Preparation Example was treated with rat blood, and its optical density was measured. Specifically, in a state where the coagulation reaction of the collected rat blood was suppressed in a heparinized vacuum collection tube, 300 μl of blood was transferred to a 15 ml conical tube, and 300 μl of the peptide of the present invention solution was added thereto and mixed gently. Then, 30 μl of 0.2 M CaCl2 solution was added thereto and incubated at 37° C. for 10 minutes to accelerate the coagulation reaction. Then, 10 ml of distilled water was carefully added thereto, and 200 μl of the uniformly dispersed supernatant was added to a 96-well plate, and the optical density was measured at a wavelength of 540 nm using a spectrophotometer. Likewise, Greenplast and RADA16 peptide preparations were used as controls.

CCCCCCCCCCCCOS(=O)(=O)[O-].[Na+] [SDS]
hemolysis (optical density of supernatant at 540 nm) ([1]; 1% SDS positive control): hemolysis occurred

CC[C@H](C)[C@H](NC(=O)[C@H](CC(N)=O)NC(=O)CNC(=O)[C@H](C)NC(=O)[C@H](CC(C)C)NC(=O)[C@H](Cc1ccc(O)cc1)NC(=O)[C@H](C)NC(=O)[C@H](CCC(N)=O)NC(=O)[C@H](CO)NC(=O)[C@H](C)NC(=O)[C@@H](N)CO)C(=O)N[C@H](C(=O)O)[C@@H](C)O [Peptide of the present invention, SASQAYLAGNIT] (H-SASQAYLAGNIT-OH)
hemolysis (optical density of supernatant at 540 nm) ([1]; 2.5% peptide, 200 μl): did not induce hemolysis
hemolysis (optical density of supernatant at 540 nm) ([1]; 5% peptide, 200 μl): did not induce hemolysis

RADA16
Blood Clotting time [2]: <30 s
Blood Clotting time ([2]; listed as RADA16 peptide): less than 30 sec
optical density (540 nm) of supernatant relative to negative control treated with distilled water [3]: 0.7
